Measured values as given in US20060069038A1, “Irreversible caspase-3 inhibitors as active site probes” (priority 2003, published 2006).

Key:
caspase-3 = molecular target: T1, caspase-3 (Homo sapiens, UniProt P42574); assay: Caspase-3 western blot on camptothecin-treated Jurkat cell extracts; format: cell-based; settings: camptothecin-treated Jurkat cells, FIG. 4
T1 construct: endogenous in cells; host or cells: Jurkat cells, apoptosis induced with camptothecin
T1 sequence (P42574 29-175 limits assumed): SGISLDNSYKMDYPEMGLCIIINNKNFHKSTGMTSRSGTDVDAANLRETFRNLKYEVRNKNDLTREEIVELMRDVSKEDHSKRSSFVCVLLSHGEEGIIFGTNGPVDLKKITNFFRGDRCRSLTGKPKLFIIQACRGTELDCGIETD
T1 sequence (P42574 176-277 limits assumed): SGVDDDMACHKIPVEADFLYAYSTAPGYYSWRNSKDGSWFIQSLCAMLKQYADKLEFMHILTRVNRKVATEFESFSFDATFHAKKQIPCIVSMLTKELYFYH
Description: Jurkat cells (ATCC # TEB-152) were maintained in RPMI1640 supplemented with 10% FBS, 2 mM L-glutamine and antibiotics (penicillin and streptamycin). Apoptosis was induced on cells (1 million cells/ml) that had been starved for 36 hours in CytoSf4 media (Kemp technologies) by addition of camptothecin (Sigma; 3 μg/ml). NT2 cells (ATCC 3813555) were cultured in DMEM+10% FBS+2 mM L-glutamine and antibiotics. Apoptosis induced with camptothecin (5 μg/ml) in culture media.
Denatured protein extracts in 1× Laemli buffer were resolved through a 18% acrylamide gradient SDS-PAGE gel (Invitrogen) at 30 mA in Tris-Glycine buffer. Samples labeled with [^125I]-M808 were migrated until the dye front reached 0.5 cm above the end of the gel, and acrylamide 1 cm above the dye front was cut out to remove all free [^125I]-M808 and reduce background. The gels were fixed for 45 minutes in a 40% Methanol-10% Acetic acid solution and dried for 90 min at 80° C. before exposure on MS Kodak film with MS intensifying screens. For Western blotting, proteins were transferred onto a […] nitrocellulose membrane (Invitrogen) in Tris-Glycine-20% methanol buffer at 40V for 2 hours. Non-specific protein binding was minimized by incubating the membranes for 1 hour in blocking buffer (5% non-fat milk/TBS/0.1% Tween-20). […] Densitometry was performed using a BioRad instrument and QuantityOne software. […]

[1] = molecular target: T2, purified recombinant human caspase-3 (Homo sapiens, UniProt P42574); assay: DEVD-AMC cleavage activity with recombinant human caspase-3 pre-incubated with inhibitor; format: biochemical; settings: purified recombinant caspase-3 pre-incubated with increasing amounts of M791
T2 construct: Active site shared between large and small caspase subunit
T2 sequence (P42574 29-175 limits assumed): T1 sequence (P42574 29-175 limits assumed)
T2 sequence (P42574 176-277 limits assumed): T1 sequence (P42574 176-277 limits assumed)
Description: FIG. 3. Potency assessment caspase inhibitors by [^125]-M808 labeling and by DEVD-AMC cleavage activity. A, B-Caspase inhibitor titration and [^125]-M808 labeling with purified recombinant human caspase-3. A-M791 with 5 minute labeling reaction and M791 with 60 minute labeling reaction. In A, the indicated IC50 was defined as the concentration of M791 that reduced the intensity of [^125I]-M808-labeled p17 subunit of caspase-3 by 50%. B-Caspase inhibitor titration and DEVD-AMC cleavage activity with recombinant human caspase-3 that had been incubated with indicated concentration of M791. Under the fluorogenic assay conditions Ki=IC50/2.
Tissues (rat liver, kidney, brain, thymus, mouse thymus) were either frozen or processed within 20 minutes of their removal. Rat tissues and cultured cells were homogenized in ice cold cell lysis buffer (50 mM Tris-Cl pH 7.5, 2 mM EDTA, 1% NP-40) supplemented with 5 mM DTT and Complete protease inhibitor cocktail (Roche). Thymi from mice injected with [^125I]-M808 were homogenized in lysis buffer supplemented with 25 μM of M808. Nuclear debris was removed by centrifugation at 13000 rpm for 10 min and the soluble fraction quantitated by Bradford assay (Bio-Rad). Caspase-3 like activity was determined with the fluorogenic substrate Ac-DEVD-AMC as described by Roy et al. (2001) Proc. Nat. Acad. Sci. USA 98: 6132-6137. […]

IC50 [1]: 0.6 nM
Compound: COc1ccc(-c2nc(C)no2)cc1CC(=O)N[C@H](C(=O)N[C@@H](CC(=O)O)C(=O)CSCc1ccccc1)C(C)C [Example M791, (3S)-5-(benzylthio)-3-[(N-{[2-methoxy-5-(3-methyl-1,2,4-oxadiazol-5-yl)phenyl]acetyl}-L-valyl)amino]4-oxopentanoic acid]
effect on caspase-3 processing (western blot) (caspase-3): prevents the auto-processing of p20 caspase 3 into p19 and p17
